# Source: patent US10577399B2, “Modified lantibiotics and methods of making and using the modified lantibiotics” (priority 2016, dated 2020)
# Entries after “also recorded” stand apart in the source; their conditions may differ. No end group written: not given here.
# Legend:
# M. luteus ATCC 10240 [1] = format: cell-based, Micrococcus luteus; settings: for M. luteus ATCC 10240 MIC / M. luteus ATCC 10240 MLC: Table 11
# Summary of the method: (§1)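 Broth microdilution: antibiotic in 50% acetonitrile, 2-fold dilutions from 640 μg/mL stock down to 0.156 μg/mL, 10 μL per well plus 190 μL of ~10^5 CFU bacteria grown in THyex at 37 °C. MIC read as concentration preventing visible growth after 24 h.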
# S. pneumoniae ATCC 27336 = format: cell-based, Streptococcus pneumoniae; settings: for S. pneumonia ATCC 27336 MIC / S. pneumonia ATCC 27336 MLC: Table 11
# Summary of the method: as §1
# [2] = Lipid II binding assay by thin layer chromatography; settings: 3:10 peptide:lipid II ratio
# Experimental: Lipid II was a kind gift from Eefjan Breukink and was resuspended in a 1:1 Methanol:Chloroform solution. The lipid II binding assay using thin layer chromatography (TLC) was done as previously described^39. The mobile solvent consisted of consisted of butanol:acetic acid:water:pyridine (15:3:12:10 [vol/vol/vol/vol]). A 0.2 mM solution of mutacin 1140 or mu1140-COOH in 10 μL of solution A was mixed with lipid II (final […]) for 1 hour in a sealed glass vial. This corresponded to a ratio 3:10 peptide:lipid II ratio. All of the reaction mixtures and the appropriate controls were spotted (5 μL) 2 cm from the bottom of the plate. These spots define the origin of the plate. […] The mobile phase was allowed to climb up the plate until it reached a centimeter from the top. The plate was allowed to dry before staining with iodine.
# With the loss of activity associated with a free carboxyl group in mu1140-COOH, the basis for the loss in activity was studied. The mechanism of action for class I lantibiotics has been determined to be due to lipid II binding^34-36. In particular, rings A and B are believed to form a cage-like structure around the pyrophosphate moiety of lipid II^37. The latter half of the peptide is predicted to enhance binding and recruit other lipid II-lantibiotic molecules into a large lipid II-lantibiotic complex^16. […]
# B. subtilis PY79 cells = test: Microscopy lipid II competition assay with fluorescein labeled nisin; format: cell-based, Bacillus subtilis; settings: pretreatment 10 μg/mL for 15 minutes
# Experimental: B. subtilis PY79 was grown and treated with fluorescein labeled peptide as previously described^39. A fresh plate of B. subtilis was used to inoculate THyex broth and incubated approximately 16 hours at 37° C. The culture was diluted 20-fold and placed back in the incubator for 3 hours at 37° C. Then, 100 μl of the culture was incubated with the antibiotic (10 μg/mL) for 15 minutes. The cells were pelleted and resuspended in 100 μl of phosphate buffer solution (PBS). The wash step was repeated three times before fixing with 1.6% formaldehyde in PBS. After fixation the cells were washed with PBS three more times and the remaining pellet was suspended in 50 μL of PBS. The sample (30 μL) was added to a slide and observed using an Olympus confocal microscope with a 100×/0.90 dry objective. A 488 nm argon laser was used to excite the fluorophore. For the competition assay, the bacterial culture was initially incubated with mu1140-COOH or native mutacin 1140 at a concentration of 10 μg/mL for 15 minutes, washed, and resuspended in fresh media. 10 μg/mL of fluorescein labeled nisin was then added for 15 minutes, before following the wash protocol previously stated.
# S. aureus ATCC 25923 = test: MIC/MLC assay against S. aureus; format: cell-based, Staphylococcus aureus; settings: Table 11
# C. accolens ATCC 49725 = test: MIC/MLC assay against C. accolens ATCC 49725; format: cell-based; settings: THyex broth with 1% Tween 80
# C. accolens KPL 1818 = test: MIC/MLC assay against C. accolens KPL 1818; format: cell-based; settings: THyex broth with 1% Tween 80
# S. pneumoniae AI8 = test: MIC against clinical S. pneumoniae isolate AI8; format: cell-based, Streptococcus pneumoniae; settings: 50% blood added
# Experimental: (§2) Minimum Inhibitory Concentrations (MICs) were determined according to previously published protocol^31. A stock solution of the antibiotics tested was first suspended in 50% acetonitrile (ACN) at a concentration 640 μg/mL. This stock was subsequently diluted 2-fold until a final concentration 0.156 μg/mL was reached. Subsequently, 10 μl of each dilution was placed into a well on a 96 well microtiter plate. M. luteus ATCC 10240, S. pneumoniae, and B. subtilis PY79 were grown overnight in THyex at 37° C. Cultures were diluted in the morning to 0.1 OD600 and allowed to grow to 0.6 OD600. This culture was diluted a 100-fold in fresh THyex media and then 400 μl of this culture was added to 10 mL of fresh THyex. The suspension contains approximately 10^5 colony forming units (CFUs). The bacterial suspension (190 μL) was added to each well containing 10 μL of antibiotic suspension or solvent blank. […] Following the 15 minute pretreatment, 190 μL was added to each well as described above. The MIC is described as the […] concentration of antibiotic that prevented visible growth after 24 hours.
# (§3) Selective activity and stability of analogs: Several core peptide mutants are provided that have improved activity against our ATCC strain of S. pneumoniae. […]
# S. pneumoniae AI11 = test: MIC against clinical S. pneumoniae isolate AI11; format: cell-based, Streptococcus pneumoniae; settings: 50% blood added
# Experimental: as §2, §3
# S. pneumoniae AI14 = test: MIC against clinical S. pneumoniae isolate AI14; format: cell-based, Streptococcus pneumoniae; settings: 50% blood added
# Experimental: as §2, §3
# S. pneumoniae AI16 = test: MIC against clinical S. pneumoniae isolate AI16; format: cell-based, Streptococcus pneumoniae; settings: 50% blood added
# Experimental: as §2, §3
# S. pneumoniae AI17 = test: MIC against clinical S. pneumoniae isolate AI17; format: cell-based, Streptococcus pneumoniae; settings: 50% blood added
# Experimental: as §2, §3
# M. luteus ATCC 10240 [3] = test: Deferred antagonism (overlay) assay, zone of inhibition; format: cell-based, Micrococcus luteus; settings: relative to wild-type strain
# Experimental: The deferred antagonism assay was performed as previously described^39. S. mutans strains were grown overnight in THyex broth at 37° C. The cultures were diluted to 0.1 OD OD600 and grown to mid-logarithmic phase before diluting to 0.05 OD600. Then, 2 μl of the cultures were spotted on THyex plates in duplicates of triplicates. The wild-type S. mutans JH1140 and S. mutans ΔmutA were used as positive and negative controls for activity, respectively. The plates were incubated for 18 hours in a candle jar at 37° C. After incubation, the strains were heat killed at 65° C. for 90 minutes. Fresh M. luteus grown overnight at 37° C. on THyex plates were used to inoculate pre-warmed THyex broth. The culture was grown to 0.6 to 0.8 OD before diluting to 0.2 OD600. The culture was further diluted 25-fold in melted (42° C.) THyex top agar. Approximately 5 mL of the top agar solution was spread on the heat killed bioassay plates and allowed to cool for 10 minutes. The plates were then placed in the incubator (at 37° C.) for 18 hours.
# Streptococcus mutans ATCC 55676 (wild-type) and the mutants that were at an OD600 of 0.2 were spotted in triplicates on a pre-warmed THyex agar plate (150×15 mm) and allowed to dry. This assay was performed in this manner to ensure that each sample had the same colony size for comparing zones of inhibition. The plate was incubated for 24 hours then placed in an oven at 50° C. for thirty minutes to kill the bacteria before the indicator strain was overlaid. Heat killing the bacteria prevents any further antimicrobial compound production so that results seen are from single day incubation. Zone diameter was measured in millimeters across the plate and compared to wild-type (i.e. zone I for ATCC compared to zone I of Trp4Ala, etc.).
Molecule,M. luteus ATCC 10240 MIC (M. luteus ATCC 10240 [1]),M. luteus ATCC 10240 MLC (M. luteus ATCC 10240 [1]),S. pneumonia ATCC 27336 MIC (S. pneumoniae ATCC 27336),S. pneumonia ATCC 27336 MLC (S. pneumoniae ATCC 27336),S. aureus ATCC 25923 MIC (S. aureus ATCC 25923),S. aureus ATCC 25923 MLC (S. aureus ATCC 25923),C. accolens ATCC 49725 MIC (C. accolens ATCC 49725),C. accolens ATCC 49725 MLC (C. accolens ATCC 49725),C. accolens KPL 1818 MIC (C. accolens KPL 1818),C. accolens KPL 1818 MLC (C. accolens KPL 1818),MIC S. pneumoniae AI8 (S. pneumoniae AI8),MIC S. pneumoniae AI11 (S. pneumoniae AI11),MIC S. pneumoniae AI14 (S. pneumoniae AI14),MIC S. pneumoniae AI16 (S. pneumoniae AI16),MIC S. pneumoniae AI17 (S. pneumoniae AI17),other results
C=C1NC(=O)[C@H](Cc2c[nH]c3ccccc23)NC(=O)[C@H](NC(=O)[C@H](CCCCN)NC(=O)[C@@H](N)Cc2ccccc2)CSC[C@@H](C(=O)N[C@H]2C(=O)N3CCC[C@H]3C(=O)NCC(=O)N[C@H](C(=O)N[C@@H](C)C(=O)N[C@@H](CCCNC(=N)N)C(=O)N/C(=C\C)C(=O)NCC(=O)N[C@@H]3CSC[C@@H]4NC(=O)[C@H](Cc5ccc(O)cc5)NC(=O)[C@@H](CSC[C@@H](C(=O)O)NC4=O)NC(=O)[C@H](CC(N)=O)NC(=O)[C@H](Cc4ccccc4)NC3=O)CS[C@H]2C)NC(=O)[C@H](CC(C)C)NC1=O [Mu1140 - COOH],–,–,–,–,–,–,–,–,–,–,–,–,–,–,–,"MIC (μg/mL) M. luteus (M. luteus ATCC 10240 [1]; Table 7, chemically modified analogs): 32 µg/mL; reduction in activity compared to wild type mutacin 1140 (MIC, M. luteus) (M. luteus ATCC 10240 [1]; vs wild type mutacin 1140): 256 fold; MIC (μg/mL) S. pneumoniae (S. pneumoniae ATCC 27336; Table 7, S. pneumoniae ATCC 27336): greater than 64 μg/mL; reduction in activity (MIC, S. pneumoniae ATCC 27336) (S. pneumoniae ATCC 27336; vs wild type mutacin 1140): > 128 fold; iodine stain at the origin of the TLC plate when mixed with lipid II [2]: faint stain; binding of fluorescein labeled nisin after pretreatment of cells (B. subtilis PY79 cells): no typical in vivo fluorescence pattern was observed; also recorded: drastically reduces binding of fluorescein labeled nisin"
"T14G: core peptide mutant of mutacin 1140, Threonine 14 replaced by Glycine (FKSWSLCTPGCARGGSFNSYCC; not fully specified; ends and bridges not checked; UniProt O68586 42-63, looked up, variant T14G) [Mutant T14G]",0.0625 micrograms per milliliter,0.0625 micrograms per milliliter,0.5 micrograms per milliliter,0.5 micrograms per milliliter,>32 micrograms per milliliter,>32 micrograms per milliliter,0.0625 micrograms per milliliter,0.0625 micrograms per milliliter,0.25 micrograms per milliliter,0.5 micrograms per milliliter,8 micrograms per milliliter,2 micrograms per milliliter,1 micrograms per milliliter,8 micrograms per milliliter,8 micrograms per milliliter,–
"T14A: core peptide mutant of mutacin 1140, Threonine 14 replaced by Alanine (FKSWSLCTPGCARAGSFNSYCC; UniProt O68586 42-63, looked up, variant T14A) [Mutant T14A]",0.125 micrograms per milliliter,0.125 micrograms per milliliter,0.5 micrograms per milliliter,0.5 micrograms per milliliter,8 micrograms per milliliter,16 micrograms per milliliter,0.25 micrograms per milliliter,0.25 micrograms per milliliter,0.5 micrograms per milliliter,2 micrograms per milliliter,8 micrograms per milliliter,4 micrograms per milliliter,2 micrograms per milliliter,8 micrograms per milliliter,8 micrograms per milliliter,zone of inhibition / inhibitory activity in deferred antagonism assay (M. luteus ATCC 10240 [3]): no change in activity
